The values that follow come from patent publication US6468476B1, “Methods for using-co-regulated genesets to enhance detection and classification of gene expression patterns” (Rosetta Inpharmatics, Inc., priority 1998, dated 2002).

The test system of the experiment is genesets (calcineurin-mediated, Gcn4-mediated). Kind of experiment: Response profiles projected onto genesets defined by cluster analysis of 34 experiments. To be noted: HU at 3.1 mM. It counts as cell-based, Saccharomyces cerevisiae. How it is done:
Yeast (Saccharomyces cerevisiae, Strain YPH499, see, Sikorski and Hieter, 1989, A system of shuttle vectors and yeast host strains designated for efficient manipulation of DNA in Saccharomyces cerevisiae, Genetics 122:19-27) cells were grown in YAPD at 30° C. to an OD600 of 1.0 (±0.2), and total RNA prepared by breaking cells in phenol/chloroform and 0.1% SDS by standard procedures (Ausubel et al., 1995, Current Protocols in Molecular Biology, Greene Publishing and Wiley-Interscience, New York, Ch. 13). Poly(A)^+ RNA was selected by affinity chromatography on oligo-dT cellulose (New England Biolabs) essentially as described in Sambrook et al. (Molecular Cloning—A Laboratory Manual (2nd Ed.), Vol. 1, Cold Spring Harbor Laboratory, Cold Spring Harbor, N.Y., 1989). First strand cDNA synthesis was carried out with 2 μg poly(A)^+ RNA and SuperScript™ II reverse transcriptase (Gibco-BRL) according to the manufacturer's instructions with the following modifications. […]
Fluorescently-labeled cDNAs (2-6 μg) are resuspended in 4×SSC plus 1 μg/μl tRNA as carrier and filtered using […] filters (Millipore, Bedford, Mass.). […] Microarrays are scanned with a fluorescence laser-scanning device as previously described (Schena et al., 1995, Science 270:467-470; Schena et al., 1995, Proc. Natl. Acad. Sci. USA 93:[…]) and the results (including the positions of perturbations) are recorded. […]

SMILES strings stand for the structures.

As for `NC(=O)NO` [HU, Hydroxyurea], the Projected profile entry was “very weak”.
